The values that follow are results of earlier work, collected in paper PMC9370779, “Traditional Medicinal Uses, Phytochemistry, Biological Properties, and Health Applications of Vitex sp” (Plants, 2022).

SMILES strings stand for the structures. “Also recorded” adds a separate entry of the source. Read-outs that look alike come from different tables or passages of the source.

For series [1], the system named is hepatocyte-derived carcinoma (HuH-7) cells. Also on record: method as in PMID 18595136.
For series [2], the system named is lipopolysaccharide-induced nitric oxide (NO) production. Set-up: method as in doi:10.1002/hlca.201600022.
The conditions of series [3]: read-out: antioxidant effects, IC50 value.
Series [4] relates to α-glucosidase.
For series [5], the system named is NO production. Also on record: method as in PMID 27535293. The note with it: up to a concentration of 100 µM.
On the set-up of series [6]: method as in PMID 10579867.
The test system of series [7] is NADP(H); quinone oxireductase type1 (QR1). Also on record: method as in PMID 23662135.
Series [8] has as its system human nasopharyngeal carcinoma (CNE1) cell line. Also on record: method as in PMID 28453270. The note with it: read-out: cytotoxic activity against CNE1, IC50 value.
On the set-up of series [9]: method as in PMID 28602939. The note with it: cell line not stated.
Series [10] concerns HCT 116 cells. Also on record: method as in PMID 28602939.
Series [11] deals with Topoisomerase-1 (Top1). Set-up: method as in PMID 28602939.
Series [12] relates to nuclear factor-kappa B (NF-κB) pathway in human embryonic kidney (HEK 293) cells. Set-up: method as in PMID 29996686. The note with it: TNF-α-induced.
Series [13] deals with NO production in LPS-induced murine macrophage (RAW 264.7) cells. Set-up: method as in PMID 29429059. The note with it: LPS-induced RAW 264.7 macrophages, up to 100 μM.
Series [14] concerns LPS-induced NO production. Set-up: method as in PMID 31302252.
Series [15] deals with interleukin 1-beta (IL-1β). Set-up: method as in PMID 31302252.
In series [16] the test system is IL-6. Also on record: method as in PMID 31302252.
Series [17] deals with inducible nitric oxide synthase (iNOS). Set-up: method as in PMID 31302252.
In series [18] the test system is COX-2. Also on record: method as in PMID 31302252.
In series [19] the test system is NF-κB signal pathways. Also on record: method as in PMID 31302252.
The test system of series [20] is Musca domestica larvae. Set-up: method as in doi:10.1016/S0031-9422(00)94985-9.
Series [21] concerns Musca. Also on record: method as in PMID 12444704.
Details of series [22]: method as in PMID 24965780.
On the set-up of series [23]: method as in PMID 27118321. The note with it: ABTS stated for 131.
For series [24], the system named is LPS-induced NO production in murine microglia (BV-2) cells. Set-up: method as in PMID 27118321.
Series [25] relates to LPS-induced NO production. Set-up: method as in doi:10.1177/1934578X19848178. The note with it: at lower doses/concentrations.
Details of series [26]: method as in PMID 29343985. The note with it: mice, acetic acid abdomen constriction.
Details of series [27]: method as in PMID 29343985. The note with it: mice, carrageenan paw oedema.

As for `C[C@]1(O)CC[C@@H]2C(C(=O)O)=CO[C@@H](O[C@@H]3O[C@H](CO)[C@@H](O)[C@H](O)[C@H]3OC(=O)c3ccc(O)cc3)[C@@H]21` [Compound 1, 2-p-hydroxybenzoyl mussaenosidic acid], the “protective effects against CCl4-induced toxicity in HuH-7 cells and oxidative stress” value in series [1] is “Showed protective effects against CCl4-induced toxicity in HuH-7 cells and oxidative stress”.
For `O=C(OCC1=CC(=O)C2C=CO[C@@H](O[C@@H]3O[C@H](CO)[C@@H](O)[C@H](O)[C@H]3O)C12)c1ccc(O)cc1` (stereo partly drawn) [Compound 18, agnusoside], in series [2], the “anti-inflammatory activity, LPS-induced NO production” value is listed as “moderate anti-inflammatory activity; also recorded: Exhibited moderate anti-inflammatory activity using NO production induced by lipopolysaccharide”.
As a reminder, the IC50 is the point on the concentration scale where inhibition reaches its midpoint. Turning to `C=C1CC[C@@H]2C(C(=O)O)=CO[C@@H](O[C@@H]3O[C@H](COC(=O)c4ccc(O)cc4)[C@@H](O)[C@H](O)[C@H]3O)[C@H]12` [Compound 19, vitexnegheteroin K], in [3], the IC50 is > 20 µM. In addition, the “inhibitory effects on α-glucosidase” value in series [4] is “moderate inhibitory effects”.
As to `C[C@@H]1CC[C@@H]2C(C(=O)O)=CO[C@@H](O[C@@H]3O[C@H](COC(=O)c4ccc(O)cc4)[C@@H](O)[C@H](O)[C@H]3O)[C@H]12` [Compound 20, vitexnegheteroin L], in series [3], the IC50 was > 20 µM. In series [4], the “inhibitory effects on α-glucosidase” value is listed as “moderate inhibitory effects”.
As for `O=C(OCC1=C[C@@H](O)[C@@H]2C=CO[C@@H](O[C@@H]3O[C@H](COC(=O)c4ccc(O)cc4)[C@@H](O)[C@H](O)[C@H]3O)[C@H]12)c1ccc(O)cc1` [Compound 21, 10-p-hydroxybenzoyl-6β-hydroxyiridoid 1-O-β-D-(6′-O-p-hydroxybenzoyl)glucopyranoside], the “inhibition of NO production” value in series [5] was “did not inhibit; also recorded: No inhibitory activity on NO production”.
`COC1CC2(CCC3(O2)C(C)CC(OC(C)=O)C2C(C)(C)CCCC23C)C(OC)O1` (stereo not drawn) [Compound 32]: in series [6], the antioxidant activity result is reported as “did not exhibit any activities”.
`CC(=O)OC1CC(C)C(O)(CCC2=CC(=O)NC2)C2(C)CCCC(C)(C)C12` (stereo not drawn) [Compound 55, vitexlactam C]: in series [7], the QR1 induction activity result was “moderate results; also recorded: Compound 55 showed moderate result on NADP(H); quinone oxireductase type1 (QR1) induction activity”.
As to `C[C@@H]1CC[C@H]2C(C)(C)CCC[C@]2(C)[C@@]1(O)CCc1cc[nH]c1C#N` [Compound 79, vitepyrroloid A], in series [8], the IC50 was 8.7 µM.
As to `C=CC(C)(O)CCC1(C)C2=C(CC(OCC)C1C)C(C)(C)CCC2` (stereo not drawn) [Compound 90], in series [9], the “cytotoxicity (in words)” value was “moderate cytotoxicity in the micromolar range; also recorded: moderate cytotoxicity at micromolar range”. The “cytotoxicity against HCT 116 cells (rank)” value in series [10] was “most cytotoxic”. Besides, the “Top1 inhibition compared with camptothecin (CPT)” value in series [11] is “equipotent”.
Regarding `CCOC1C=C(CCC2(O)C(C)CC(OC(C)=O)C3C(C)(C)CCCC32C)C(=O)O1` (stereo not drawn) [Compound 94, viterotulin C], in series [12], the “inhibition rates of NF-κB activation” value was 66.09 ± 11.49.
On to `CC(=O)OC1CC(C)C(O)(CCC2=CC(=O)OC2)C2(C)CCCC(C)(C)C12` (stereo not drawn) [Compound 95, vitexilactone D], for which the “inhibition rates of NF-κB activation” value in series [12] was 57.30 ± 15.70.
In the case of `C[C@@H]1C[C@@H](O)C2C(C)(C)[C@@H](O[C@@H]3O[C@H](CO)[C@@H](O)[C@H](O)[C@H]3O)CC[C@]2(C)[C@@]1(O)CCC1=CCOC1=O` (stereo partly drawn) [Compound 96, (3S,5S,6S,8R,9R,10S)-3,6,9-trihydroxy-13(14)-labdean-16,15-olide-3-O-β-D-gluco-pyranoside], the “inhibitory effect on NO production (in words)” value in [13] is “No inhibitory activity on NO production in LPS-induced RAW 264.7 macrophages up to concentration of 100 μM”.
For `CC1=C(CCC2=CCOC2=O)[C@@]2(C)CC[C@H](O)C(C)(C)[C@@H]2CC1` [Compound 98, (3S,5R,10S)-3-hydroxy-labd-8,13-dien-16,15-olide], the “inhibition of LPS-induced NO production (in words)” value in series [14] is listed as “strong”. The IC50 in series [14] (read-out: inhibition of NO production, IC50 value) was 15.8 µM. The “inhibition of IL-1β level” value in series [15] is listed as “significant inhibition”. Besides, in [16], the “inhibition of IL-6 level” value was “significant inhibition”. In addition, in series [17], the “inhibition of iNOS” value is “able to inhibit; also recorded: inhibition on iNOS, COX-2 and NF-κB signal pathways”. The “inhibition of COX-2” value in series [18] is “able to inhibit; also recorded: inhibition on iNOS, COX-2 and NF-κB signal pathways”. Further, in [19], the “inhibition of NF-κB signal pathways” value was “able to inhibit; also recorded: inhibition on iNOS, COX-2 and NF-κB signal pathways”.
With `CC(C)(O)C(O)CC[C@](C)(O)[C@H]1CC[C@@]2(O)C3=CC(=O)[C@@H]4C[C@@H](O)[C@@H](O)C[C@]4(C)C3CC[C@]12C` (stereo partly drawn) [Compound 103, pinnatasterone], the “activity against Musca domestica larvae” value in series [20] was “Exhibited weak activity against M. domestica larvae”.
For the compound `CC(C)(O)CCC[C@](C)(O)C1CC[C@@]2(O)C3=CC(=O)[C@@H]4C[C@@H](O)[C@@H](O)C[C@]4(C)C3[C@H](O)C[C@]12C` (stereo partly drawn) [Compound 110, scabrasterone], the “molting activity in the Musca bioassay” value in series [21] was “very weak molting activity”.
With `COc1cc([C@H]2c3c(cc(OC)c(O)c3OC)C=C(C=O)[C@@H]2CO)ccc1O` [Compound 128, vitexdoin F], the “DPPH radical-scavenging activity compared with ascorbic acid” value in [22] was “Exhibited stronger activity than ascorbic acid using DPPH radical-scavenging assays”.
Turning to `COc1cc(C2c3cc(O)c(O)cc3C=C(C=O)C2COC2OC(CO)C(O)C(O)C2O)ccc1O` (stereo not drawn) [Compound 129, vitexnegheteroin E], the antioxidant activity result in series [23] is on record as “antioxidant”. The “inhibition of LPS-induced NO production” value in series [24] is listed as “inhibitory activities”.
As to `COc1cc2c(cc1O)C(c1ccc(OC)c(OC)c1)C(CO)C(C=O)=C2` (stereo not drawn) [Compound 137, 6-hydroxy-4-(3,4-dimethoxyphenyl)-3-hydroxymethyl-7-methoxy-3,4-dihydro-2-naphthaldehyde], the “inhibitory effects on NO generation” value in series [25] is recorded as “minor effects of inhibitory”.
Take `COc1ccc([C@H]2c3c(ccc(O)c3OC)C=C(C=O)[C@@H]2CO)cc1OC` [Compound 138, 6-hydroxy-4-(3,4-dimethoxyphenyl)-3-hydroxymethyl-5-methoxy-3,4-dihydro-2-napthaldehyde]: the “inhibitory effects on NO generation” value in [25] is reported as “minor effects of inhibitory”.
On to `COC(=O)c1cccc(CCc2cc(=O)c3c(O)c(OC)ccc3o2)c1` [Compound 160], for which, in series [26], the antinociceptive action result was “successful in reducing nociception and inflammation; also recorded: The derivatives from V. negundo L. were able to reduce inflammation, and nociception, and could be used as a potential source of antinociceptive and anti-inflammatory candidates”. The anti-inflammatory activity entry in series [27] was “successful in reducing nociception and inflammation; also recorded: The derivatives from V. negundo L. were able to reduce inflammation, and nociception, and could be used as a potential source of antinociceptive and anti-inflammatory candidates”.
With `COc1ccc2oc(CC(O)c3cccc(C(=O)O)c3)cc(=O)c2c1O` (stereo not drawn) [Compound 161], the antinociceptive action result in [26] is “successful in reducing nociception and inflammation; also recorded: The derivatives from V. negundo L. were able to reduce inflammation, and nociception, and could be used as a potential source of antinociceptive and anti-inflammatory candidates”. For the same compound, the anti-inflammatory activity entry in series [27] was “successful in reducing nociception and inflammation; also recorded: The derivatives from V. negundo L. were able to reduce inflammation, and nociception, and could be used as a potential source of antinociceptive and anti-inflammatory candidates”.
As for `CC(C(=O)O)c1ccc(-c2ccccc2)c(F)c1` (stereo not drawn) [flurbiprofen], the symptoms of mastalgia result (cyclic mastalgia, premenopausal women, V. agnus-castus fruit 40 mg) was “significant reduction”. Besides, the harmful effects result (in vivo) is reported as “no harmful effects”.
